Article PMC8767159, “Multiparameter Optimization of Trypanocidal Cruzain Inhibitors With In Vivo Activity and Favorable Pharmacokinetics” (Frontiers in Pharmacology, 2022)

How the values were obtained:
[1] = Cytotoxicity MTS assay in HFF-1 fibroblasts; assay type: cell-based; conditions: human HFF-1 fibroblasts
Method: The synthesized compounds were evaluated for their cytotoxicity against HFF-1 cells using the MTS assay (Promega, Madison, WI) ([Barltrop et al., 1991]) as previously described ([Ferreira et al., 2019]). HFF-1 fibroblasts were plated at 2 × 10^3/well in 96-well culture plates in RPMI 1640 without phenol red enriched with 10% FCS and incubated overnight at 37°C and 5% CO2. Next, 7 concentrations (0.1–100 µM) of the compounds were added in 3-fold serial dilutions, each concentration in triplicate, and the plates were incubated for 72 h at 37°C and 5% CO2. Next, 20 µl of MTS was added to each well, and the plates were incubated for an additional 4 h at 37°C and 5% CO2. The absorbance was measured at 490 nm using a spectrophotometer, and the data were transferred to SigmaPlot 10.0 (Systat Software Inc., Erkrath, Germany) to determine the IC50 values. Doxorubicin (Sigma–Aldrich) was used as a positive control, and untreated wells (100% growth) were used as negative controls in all plates. All compounds were tested in two independent assays.

[2] = In vitro metabolic stability in human liver microsomes; assay type: in vitro ADME; conditions: for CLint (L/h/kg) Human: Table S5; for CLint_u (L/h/kg) Human: Table S5, CLint/fu
Method: (§1) Isolated mouse (BD Gentest, Bedford, MA) and human liver microsomes (XenoTech, Kansas City, KS) ([Plant, 2004]) were added at a final concentration of 0.25 mg/ml to a solution containing 40 mM dibasic potassium phosphate and 10 mM monobasic potassium phosphate. Stock solutions of compounds at 5 mM were prepared in 100% DMSO. A 50:50 quenching solution of acetonitrile (ACN) and methanol (MeOH) was prepared. An NADPH solution was prepared at 10 mM. The preparations containing the microsomes were added to each well of the incubation plate (450 µl), which was then heated to 37°C for 10 min. The compounds were added to the respective wells of the test plate (2 µl). Then, 300 µl of the microsome preparation was added to each well of the test plate. The test plate was heated under gentle rotation for 5 min at 37°C. Next, 90 µl of the mixture contained in the test plate was added to the incubation plate, making a final volume of 540 µl. Samples were collected at the following incubation times: 0, 5, 10, 15, 20, and 30 min. To the 0 min sample plate, quenching solution (180 µl), NADPH (6 µl), and the incubation plate mixture (54 µl) were added to each well. The sample plate was then sealed, homogenized, and stored at 4°C. Then, 54 µl of the NADPH solution was added to the incubation plate, which was homogenized. Before the collection of each sample at the established times, 45 µl of the quenching solution was added to each well of the corresponding sample plates. After reaching the incubation times, 60 µl of the mixture contained in the incubation plate was added to the corresponding sample plates. The sample plates were then sealed and stored at 4°C. After the collection of the last sample (30 min), all sample plates were centrifuged at 3,800 rpm for 30 min. The supernatant from each well was collected and transferred to clean plates for mass spectrometry. Five to 10 µl of each sample was injected into an AB Sciex Triple Quad 5500 LC-MS/MS instrument.
(§2) For the biotransformation experiments and analysis of metabolites in microsomes, an Ultra-High-Pressure Liquid Chromatography instrument (UHPLC, Thermo Accela, Waltham, MA) ([Spaggiari et al., 2014]) connected to an automatic sample injector and a 1250 series pump was used. The UHPLC system was connected to a Thermo Fisher (Waltham, MA) LTQ Orbitrap mass spectrometer. For all other analyses, an AB Sciex Triple Quad 5500 coupled to a UHPLC equipped with a UV 1290 diode detector (Agilent Technologies, Santa Clara, CA) and a CTC PAL self-collecting system (LEAP Technologies, Carrboro, NC) was used. Q1 MS positive ion mode (300–500 Da) was used to detect the ions of the parent compounds. The UV detector was operated in spectral mode (250–280 nm). A Hypersil Gold C18 (2.1 mm × 100 mm, 1.9 µm, Thermo Fisher) HPLC column was used. The mobile phases were solvent A (0.1% formic acid in water) and solvent B (0.1% formic acid in ACN). The flow was adjusted to 0.55 ml/min, and the injection volume was adjusted to […]. The gradient started with 1% solvent B for 0.4 min, reached 40% (solvent B) in 2.3 min and 95% (solvent B) in 0.67 min, was maintained for 0.5 min, and returned to the initial condition of 1%. This condition was maintained for 1 min before injection of the next sample. The peak area ratio (peak area of the test compounds/peak area of the control compounds) was converted to the percentage of remaining compound, with the 0 min time point ratio set to 100%. T½ and CLint were calculated from the percentage of remaining compound versus the incubation time. From the resulting function, the slope (k) was determined. The equations T1/2 (min) = ln(2)/k and CLint in vitro (μL/min/mg) = k*1000/0.25 were used to determine T½ and CLint.

[3] = In vitro metabolic stability in mouse liver microsomes; assay type: in vitro ADME; conditions: for CLint (L/h/kg) Mouse: Table S5; for CLint_u (L/h/kg) Mouse: Table S5, CLint/fu
Method: as §1, §2

[4] = Fraction unbound by equilibrium dialysis; assay type: in vitro ADME; conditions: Table S5; fraction unbound
Method: The fraction unbound (fu) ([Masimirembwa et al., 2003]) of the test compounds was determined after incubation with different media, namely, plasma, microsomes, and buffer with 10% FCS. Equilibrium dialysis was performed in a 96-well plate (HT-Dialysis, Gales Ferry, CT) in which each well was divided by a semipermeable membrane (12–14 kDa cutoff). The test compounds diluted in either plasma, microsome suspension, or buffer were added to one side of the membrane. Potassium phosphate buffer (50 mM, pH 7.4) was added to the other side of the membrane. A standard curve was used to calculate the compound concentration (fu) on each side of the membrane. Stock solutions of each compound were prepared in 100% DMSO to obtain a final concentration of 1 mM. The following compound concentrations were used: 1, 2, 20, 200, 2,000 and 5,000 nM. To 500 μl of medium, 0.5 μl of the compound stock solution was added, and this was applied to one side of the well. Each compound was evaluated in triplicate. Next, the plate was assembled, sealed, and incubated at 37°C under rotation (150 rpm) for 4 h. After the incubation period, the plates were subjected to LC-MS/MS.

Row | CLint (L/h/kg) Human [2] [L/h/kg] | CLint_u (L/h/kg) Human [2] | CLint (L/h/kg) Mouse [3] [L/h/kg] | CLint_u (L/h/kg) Mouse [3] | fu [4] | SMILES | IC50 at 72 h [1] [nM]
1 | 1.78 | 1.94 L/h/kg | 35.90 | 39.06 L/h/kg | 0.91 | CC(=O)NCCc1nc2ccccc2n1CCOc1ccccc1 [Compound 55] | –
2 | 9.07 | 11.38 L/h/kg | 234.00 | 293.60 L/h/kg | 0.80 | O=C(CSc1ccccc1)NCCc1nc2ccccc2[nH]1 [Compound 48] | –
3 | 157.00 | 3,634.26 L/h/kg | 355.00 | – | 0.04 | O=C(COc1ccc2ccccc2c1Br)NCCc1nc2ccccc2n1CCC(=O)c1cccs1 [Compound 61] | –
4 | 125.00 | 5,186.72 L/h/kg | 331.00 | – | 0.02 | COc1cccc(C(=O)CCn2c(CCNC(=O)COc3ccc4ccccc4c3Br)nc3ccccc32)c1 [Compound 62] | –
5 | 3.28 | 3.28 L/h/kg | 86.20 | 86.20 L/h/kg | 1.00 | O=C(CCOc1ccccc1)NCCc1nc2ccccc2[nH]1 [Compound 49] | –
6 | 4.75 | 4.90 L/h/kg | 95.10 | 98.14 L/h/kg | 0.97 | CC(=O)NCCc1nc2ccccc2n1CCOCc1ccccc1 [Compound 56] | –

Continued, compound first:

Row | SMILES | CLint (L/h/kg) Human [2] [L/h/kg] | CLint_u (L/h/kg) Human [2] | CLint (L/h/kg) Mouse [3] [L/h/kg] | CLint_u (L/h/kg) Mouse [3] | fu [4] | IC50 at 72 h [1] [nM]
7 | COc1cccc2c1C(=O)c1c(O)c3c(c(O)c1C2=O)C[C@@](O)(C(=O)CO)C[C@@H]3O[C@H]1C[C@H](N)[C@H](O)[C@H](C)O1 [Doxorubicin, reference compound] | – | – | – | – | – | 260
8 | Nc1ccccc1OCC(=O)NCCc1nc2ccccc2[nH]1 [Compound 42] | 3.91 | 4.64 L/h/kg | 24.80 | 29.45 L/h/kg | 0.84 | –
9 | O=C(COc1ccccc1Cl)NCCc1nc2ccccc2[nH]1 [Compound 40] | 19.50 | 22.70 L/h/kg | – | 419.09 L/h/kg | 0.86 | –
10 | Cc1cc(C)c(C#N)c(SCC(=O)NCCc2nc3ccccc3[nH]2)n1 [Compound 59] | 61.50 | 64.36 L/h/kg | 433.00 | 453.17 L/h/kg | 0.96 | –
11 | CC(=O)Nc1ccccc1OCC(=O)NCCc1nc2ccccc2[nH]1 [Compound 43] | 3.94 | 3.94 L/h/kg | 10.30 | 10.30 L/h/kg | 1.00 | –
12 | O=C(COc1ccccc1F)NCCc1nc2ccccc2[nH]1 [Compound 39] | 7.03 | 7.45 L/h/kg | 125.00 | 132.56 L/h/kg | 0.94 | –
13 | O=C(COc1ccc2ccccc2c1)NCCc1nc2ccccc2o1 [Compound 51] | 35.40 | 65.56 L/h/kg | 618.00 | 1,144.44 L/h/kg | 0.54 | –
